Measurements published in US20120263762A1, “STABILISED PARTICLES COMPRISING 5-METHYL-(6S)-TETRAHYDROFOLATE” (BAYER PHARMA AKTIENGESELLSCHAFT, priority 2009, published 2012).

Assay: Particle size distribution of particles (laser diffraction, volume distribution)
Type: physicochemical
Details: micronized active ingredient before coating
Excerpt: When used herein, the term “d90 particle size” is intended to mean that the particle size distribution is so that at least 90% of the particles have a particle diameter of less than the specified value, calculated from the volume distribution curve under the presumption of spherical particles. In a similar way, the term “d50 particle size” is intended to mean that the particle size distribution is so that at least 50% of the particles have a particle diameter of less than the specified value, calculated from the volume distribution curve under the presumption of spherical particles.
Therefore, it is important to note that whenever the terms “particle size”, “particle size distribution”, “particle diameter”, “d90”, “d50”, etc., are used herein it should be understood that the specific values or ranges used in connection therewith are always meant to be determined from the volume distribution curve under the presumption of spherical particles. The particle size distribution may be determined by various techniques, e.g. laser diffraction, and will be known to the person skilled in the art. […] The particle size distribution of the particles, when incorporated in a wafer, may be determined by dissolving the film forming matrix, separation of the protected particles, and drying the protected particles. […]

## C[C@]12CCC(=O)C=C1[C@@H]1C[C@@H]1[C@H]1[C@@H]3[C@@H]4C[C@@H]4[C@@]4(CCC(=O)O4)[C@@]3(C)CC[C@@H]12 [drospirenone]
  d50: 2.2 μm
  d90: 4.8 μm
